The values that follow come from patent EP0752872B1, “NADH OXIDASE AS A TARGET IN DIAGNOSIS AND THERAPY” (Morré, D. James, priority 1994, dated 1995).

In assay [1] the test system is plasma membrane NADH oxidase. The following applies: addition at 0.1 µM; normal rat liver plasma membrane vesicles; no addition 0.72 ± 0.06; cited from earlier work.
Assay [2] deals with NADH oxidase activity of plasma membranes of HL-60 cells. The experiment in a line: NADH oxidase assay, HL-60 plasma membranes. Type of assay: biochemical, human. The procedure:
(§1) Spectrophometric assay of NADH oxidase. NADH oxidase activity was determined as the disappearance of NADH measured at 340 nm in a reaction mixture containing 25 mM Tris-MES buffer (pH 7.2), 1 mM KCN to inhibit the low levels of contaminating mitochondrial oxidase activity, and 150 µM NADH at 37°C with constant stirring. Activity was measured using a Hitachi U3210 spectrophotometer with continuous recording over two intervals of 5 min each. A millimolar extinction coefficient of 6.22 was used to determine specific activity.

For assay [3], the system named is plasma membrane NADH oxidase. Put plainly: Spectrophotometric NADH oxidase assay, rat liver plasma membranes (normal cells). Format: biochemical. The procedure:
Purification of plasma membranes from rat liver. A 5000 x g pellet from the preparation of Golgi apparatus (Morré (1971) Meth. Enzymol. 22, 130-148) was the starting material. The fluffy layer which contains the Golgi apparatus fraction was mixed, withdrawn and excluded from the plasma membrane preparations. Cold 1 mM NaHCO3 (5 ml) was added to each tube and the friable yellow-brown upper part of the pellet was resuspended with a pen-brush, leaving the reddish tightly packed bottom part of the pellet undisturbed. The resuspended material was homogenized in aliquots of 5 ml each in a 30 ml stainless steel homogenizer (Duragrind) 20 times by hand. The homogenates were combined, diluted with cold 1 mM NaHCO3 (1:1 dilution), and centrifuged at 6000 x g in a HB rotor for 15 min. The supernatant was discarded and the pellet was used for the two-phase separation (Morré & Morré (1989) BioTechniques 7:946-958).
The two-phase system contained 6.4% (w/w) Dextran T-500 (Pharmacia), 6.4% (w/w) polyethylene glycol) 3350 (Fisher), and 5 mM potassium phosphate buffer (pH 7.2) (Morré & Morré, 1989, supra). The homogenate (1 g) was added to the two-phase system and the weight of the system was brought to 8 g with distilled water. The tubes were inverted vigorously for 40 times in the cold (4°C). The phases were separated by centrifugation at 750 rpm (150 x g) in a Sorvall HB 4 rotor for 5 min. The upper phases were carefully withdrawn with a pasteur pipette, divided in half and transferred into 40 ml plastic centrifuge tubes and diluted with cold 1 mM NaHCO3. The purified plasma membranes were collected by centrifugation at 10,000 x g in a HB rotor for 30 min. Plasma membrane pellets were resuspended in 50 mM Tris-Mes buffer (pH 7.2) and stored at -70°C. Proteins were determined using the bicinchoninic acid (BCA) assay (Smith et al. (1985) Anal. Biochem. […]: 76-85) with bovine serum albumin as standard.
as §1

The subject of assay [4] is HL-60 cells. The experiment in a line: Ascorbate radical assay of electron flow released from cells. Type of assay: cell-based, human. The settings on record: 0.2 mM ascorbate. The procedure:
Of particular interest is employing an electron acceptor in the assay for NADH oxidase, conveniently ascorbate radical, where one may follow the rate of disappearance of the ascorbate radical under the conditions of the assay. One can measure the reduction of ascorbate free radical at 265 nm employing a spectrophotometer as described by Winkler (1987) Biochim. et Biophys. Acta 925:258-264. One may use intact cells suspended in a convenient buffer medium containing ascorbate, incubating the cell suspension and then following the reduction of the ascorbate as described above. See, also, Alcain et al. (1991) Biochim. et Biophys. Acta 1073:380-385 and Navas et al. (1992) FEBS Letters 299:223-226.
Under these conditions, electron flow is inhibited by adriamycin at concentrations where growth is inhibited in adriamycin susceptible HL-60 cells, but not inhibited with adriamycin-resistant cells, where growth also is not inhibited. These inhibitions with susceptible cells were observed without perceptible lag. Also the response was observed without preincubation with adriamycin.

The test system of assay [5] is FIV-infected Crandall feline leukemia cells. Put plainly: Growth of FIV-infected cells. Type of assay: cell-based. The settings on record: Felis catus, read-out: concentration inhibiting growth. The procedure:
(§2) The antisera were conjugated to adriamycin through an activated carboxyl of the antibody to the amine of adriamycin free base using 2-isobutoxyl-1-isobutoxycarbonyl-1,2-dihydroxyquinoline, where the antibody was bound to an Ag-BSA sepharose affinity column. The concentration of drug conjugated was determined spectroscopically and was tested initially at a concentration of 0.2 µM on the growth of FIV-infected and -uninfected Crandall feline leukemia cells.

In assay [6] the test system is HL-60 cells. Put plainly: Growth of HL-60 cells in suspension. Format: cell-based, human.
Assay [7] deals with circulating NADH oxidase in the serum. Put plainly: NADH oxidase activity of human serum. Format: biochemical. The following applies: adriamycin. The procedure: as §1
For assay [8], the target named is T1, plasma membrane NADH oxidase activity from RLT-N hepatoma (Rattus norvegicus, UniProt D3Z9Z5).
T1 sequence (D3Z9Z5 1-606): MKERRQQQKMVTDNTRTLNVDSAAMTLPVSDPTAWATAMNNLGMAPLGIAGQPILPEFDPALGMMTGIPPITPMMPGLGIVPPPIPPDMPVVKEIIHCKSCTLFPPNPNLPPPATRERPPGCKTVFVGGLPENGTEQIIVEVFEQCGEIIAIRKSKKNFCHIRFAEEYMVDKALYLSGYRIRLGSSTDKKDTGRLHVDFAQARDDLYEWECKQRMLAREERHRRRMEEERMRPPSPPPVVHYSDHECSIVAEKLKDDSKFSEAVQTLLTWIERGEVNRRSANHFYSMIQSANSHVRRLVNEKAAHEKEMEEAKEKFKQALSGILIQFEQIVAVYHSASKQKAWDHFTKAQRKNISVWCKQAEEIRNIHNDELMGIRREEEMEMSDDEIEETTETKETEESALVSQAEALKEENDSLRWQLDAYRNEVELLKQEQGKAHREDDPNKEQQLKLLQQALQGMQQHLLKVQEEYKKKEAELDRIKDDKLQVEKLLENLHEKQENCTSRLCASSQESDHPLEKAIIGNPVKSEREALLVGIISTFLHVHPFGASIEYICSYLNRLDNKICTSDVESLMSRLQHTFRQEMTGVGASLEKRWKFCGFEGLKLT
Put plainly: Spectrophotometric NADH oxidase assay, rat hepatoma plasma membranes. Type of assay: biochemical. The procedure: as §1

The test system of assay [9] is uninfected Crandall feline leukemia cells. The experiment in a line: Growth of uninfected cells. Format: cell-based. The following applies: Felis catus; normal cells; read-out: concentration inhibiting growth. The procedure:
as §2

For assay [10], the system named is NADH oxidase activity of serum. The experiment in a line: NADH oxidation by rat serum samples. Format: biochemical. The settings on record: +0.25 µM adriamycin. The procedure:
as §1

The target of assay [11] is T2, NADH oxidase from HeLa cell plasma membranes (Homo sapiens, UniProt Q16206).
T2 sequence (Q16206 1-610): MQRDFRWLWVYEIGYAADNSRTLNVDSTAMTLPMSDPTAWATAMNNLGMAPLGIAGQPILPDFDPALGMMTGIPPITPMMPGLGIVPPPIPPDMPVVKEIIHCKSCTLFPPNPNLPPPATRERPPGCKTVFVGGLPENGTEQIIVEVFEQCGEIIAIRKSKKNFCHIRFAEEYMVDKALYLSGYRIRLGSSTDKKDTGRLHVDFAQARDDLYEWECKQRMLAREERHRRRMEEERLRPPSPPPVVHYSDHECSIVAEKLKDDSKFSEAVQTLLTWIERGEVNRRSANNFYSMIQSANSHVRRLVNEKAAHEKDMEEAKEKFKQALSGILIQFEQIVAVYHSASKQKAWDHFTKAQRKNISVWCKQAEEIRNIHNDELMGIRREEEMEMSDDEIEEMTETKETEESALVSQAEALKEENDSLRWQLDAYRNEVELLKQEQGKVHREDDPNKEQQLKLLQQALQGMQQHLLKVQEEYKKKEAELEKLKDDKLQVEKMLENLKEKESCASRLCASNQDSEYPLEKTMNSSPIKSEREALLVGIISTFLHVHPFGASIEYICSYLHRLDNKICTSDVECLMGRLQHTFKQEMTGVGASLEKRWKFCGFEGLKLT
Put plainly: Spectrophotometric NADH oxidase assay, HeLa plasma membranes. Format: biochemical. The settings on record: HeLa plasma membranes. The procedure:
Purification of plasma membranes from HeLa cells. HeLa cells were grown as suspension cultures in minimum essential medium (MEM) supplemented with horse serum, diferric transferrin and heparin. Cells were collected by centrifugation for 6 to 15 min at 1,000 to 3,000 rpm. The cell pellets were resuspended in 0.2 mM EDTA in 1 mM NaHCO3 in an approximate ratio of 1 ml per 10^8 cells and incubated on ice for 10 to 30 min to swell the cells. Homogenization was with a Polytron Homogenizer for 30 to 40 sec at 10,500 rpm using a PT-PA 3012/23 or ST-probe in 7 to 8 ml aliquots. To estimate breakage, the cells are monitored by light microscopy before and after homogenization. […]
The homogenates were centrifuged for 10 min at 1,000 rpm (175 g) to remove unbroken cells and nuclei and the supernatant was centrifuged a second time at 1.4 x 10^6 g min (e.g. 1 h at 23,500 g) to prepare a plasma membrane enriched microsome fraction. […] The purity of the plasma membrane was determined to be > 90% by electron microscope morphometry. […]
Spectrophometric assay of NADH oxidase. NADH oxidase activity was determined as the disappearance of NADH measured at 340 nm in a reaction mixture containing 25 mM Tris-MES buffer (pH 7.2), 1 mM KCN to inhibit the low levels of contaminating mitochondrial oxidase activity, and 150 µM NADH at 37°C with constant stirring. […]

As for `C=C1/C(=C\C=C2/CCC[C@]3(C)[C@@H]([C@H](C)CCCC(C)(C)O)CC[C@@H]23)C[C@@H](O)C[C@@H]1O` [Calcitrol], the NADH oxidase in assay [1] is 0.16 ± 0.04 nmoles/min/mg protein.
Take `COc1cccc2c1C(=O)c1c(O)c3c(c(O)c1C2=O)C[C@@](O)(C(=O)CO)C[C@@H]3O[C@H]1C[C@H](N)[C@H](O)[C@H](C)O1` [adriamycin]: the “inhibition of NADH oxidase activity (in words)” value in [2] (adriamycin-resistant HL-60 cells) is recorded as “not inhibited”; in [2] (normal, adriamycin-susceptible HL-60 cells), “inhibited”. Also, the “inhibition of growth factor-stimulated NADH oxidase activity” value in assay [3] (0.1 µM adriamycin, activity stimulated by epidermal growth factor (EGF)) is “inhibited completely”. For the same molecule, the “inhibition of NADH oxidase activity” value in assay [3] (0.1 µM adriamycin, liver plasma membranes) is recorded as “uninhibited”. For the same molecule, the IC50 in assay [3] (plasma membranes from rat liver, normal cells, read-out: ED50 for inhibition of NADH oxidase activity) was around 7 µM. The “inhibition of electron flow (in words)” value in assay [4] (adriamycin susceptible HL-60 cells) is reported as “inhibited”; in [4] (adriamycin-resistant cells) it was “not inhibited”. Also, the minimal effective concentration in [5] and in assay [9] was at least 10 µM each time. For the same molecule, the “inhibition of growth (in words)” value is on record as “inhibited” in [6] (HL-60 cells, adriamycin susceptible, not differentiated) and “not inhibited” in assay [6] (adriamycin-resistant cells). Besides, the “effect on change in absorbance (in words)” value in [7] (sera from 12 normal individuals) is recorded as “consistently stimulated”. In addition, in assay [7] (sera from the 18 cancer patients), the “effect on activity (in words)” value was “inhibited with 17 of the samples and unchanged in one”. 0.1 µM produced 40% inhibition in assay [8] (0.1 µM adriamycin, hepatoma plasma membranes). For the same molecule, the “Relative rates of NADH oxidation” value amounted to 1.75 ± 0.05 in [10] (serum from normal rats, no adriamycin 1.7 ± 0.1) and 0.35 ± 0.05 in assay [10] (serum from rats bearing an RLT-28 tumor, no adriamycin 1.0 ± 0.1).
On to `CCCCCCCCCC[C@H](O)[C@H]1CC[C@H]([C@H]2CC[C@H]([C@H](O)CCCCCCCCCC[C@@H](O)CC3=C[C@H](C)OC3=O)O2)O1` [bullatacin], for which the “inhibition of NADH oxidase activity (in words)” value in assay [11] was “inhibition”.
Consider simalikalactone D [similikalactone D], for which, in [8] (final concentration of 0.4 µM prepared in DMSO, equivalent DMSO without effect), the “inhibition of NADH oxidase activity (in words)” value is “inhibited”.
